The source of these data is patent publication US20240050428A1 (Cullgen (Shanghai), Inc., priority 2020, published 2024).

Where two headings read alike, the source gives them in different places.

The subject of assay [1] is MV4;11 cells. Nature of the assay: Cell viability assay (CellTiter-Glo) in MV4;11 cells, alone or with gilteritinib. The following applies: Homo sapiens, MV4;11 cells, three days, CellTiter-Glo, read-out: MV4. Type of assay: cell-based.
In assay [2] the test system is MOLM-13 cells. Nature of the assay: Cell viability assay (CellTiter-Glo) in MOLM-13 cells, alone or with gilteritinib. The format is cell-based. Particulars: Homo sapiens, MOLM-13 cells, three days, CellTiter-Glo. On the technique in general: In ATP-based viability assays light output follows the ATP content of the culture.
Where [3] appears, read: MV4-11, 72 h, compound alone (without gilteritinib), 11 IC50.
Where [4] appears, read: MV4-11, 72 h, compound with gilteritinib 10 nM, 11 IC50 gilteritinib.
Setting [5] is: MOLM-13, 72 h, compound alone (without gilteritinib), read-out: MOLM-13 IC50.
Where [6] appears, read: MOLM-13, 72 h, compound with gilteritinib 20 nM, read-out: MOLM-13 IC50 gilteritinib.

On to `O=C1CCC(N2Cc3cc(NCCCCC(=O)N4CCC(n5cc(-c6cnc7ccccc7n6)cn5)CC4)ccc3C2=O)C(=O)N1` (stereo not shown) [GS-515, 3-(1-Oxo-5-((5-oxo-5-(4-(4-(quinoxalin-2-yl)-1H-pyrazol-1-yl)piperidin-1-yl)pentyl)amino)isoindolin-2-yl)piperidine-2,6-dione], for which the IC50 in assay [1] (setting [3]) is > 1000 nM; in assay [1] (setting [4]), 10 to 100 nM; in assay [2] (setting [5]), > 1000 nM; in assay [2] (setting [6]), 100 to 1000 nM.

On to `Cc1ccccc1-c1cnn(CCCCCCNc2ccc3c(c2)C(=O)N(C2CCC(=O)NC2=O)C3=O)c1` (stereo not shown) [GS-516, 2-(2,6-Dioxopiperidin-3-yl)-5-((6-(4-(o-tolyl)-1H-pyrazol-1-yl)hexyl)amino)isoindoline-1,3-dione], for which the IC50 in assay [1] (setting [3]) is 100 to 1000 nM; in assay [1] (setting [4]), 10 to 100 nM; in assay [2] (setting [5]), > 1000 nM; in assay [2] (setting [6]) it was 10 to 100 nM.

In the case of `O=C1CCC(N2C(=O)c3ccc(NCCCCCCn4cc(-c5cnc6cc(Br)ccc6n5)cn4)cc3C2=O)C(=O)N1` (stereo not shown) [GS-517, 5-((6-(4-(6-Bromoquinoxalin-2-yl)-1H-pyrazol-1-yl)hexyl)amino)-2-(2,6-dioxopiperidin-3-yl)isoindoline-1,3-dione], the IC50 lay within 100 to 1000 nM in assay [1] (setting [3]), 10 to 100 nM in assay [1] (setting [4]), 100 to 1000 nM in assay [2] (setting [5]) and 10 to 100 nM in assay [2] (setting [6]).

Regarding `O=C(CCC(F)(F)C(=O)N1CCC(n2cc(-c3cnc4ccccc4n3)cn2)CC1)NCc1ccc2c(c1)CN(C1CCC(=O)NC1=O)C2=O` (stereo not shown) [GS-518, N-((2-(2,6-Dioxopiperidin-3-yl)-1-oxoisoindolin-5-yl)methyl)-4,4-difluoro-5-oxo-5-(4-(4-(quinoxalin-2-yl)-1H-pyrazol-1-yl)piperidin-1-yl)pentanamide], the IC50 in assay [1] (setting [3]) was 10 to 100 nM; in assay [1] (setting [4]), < 10 nM; in assay [2] (setting [5]) it was 100 to 1000 nM; in assay [2] (setting [6]), < 10 nM.

As to `O=C1CCC(N2Cc3ccc(NCCCCCn4cc(-c5cnc6ccccc6n5)cn4)cc3C2=O)C(=O)N1` (stereo not shown) [GS-519, 3-(1-Oxo-6-((5-(4-(quinoxalin-2-yl)-1H-pyrazol-1-yl)pentyl)amino)isoindolin-2-yl)piperidine-2,6-dione], the IC50 in assay [1] (setting [3]), in assay [1] (setting [4]), in assay [2] (setting [5]) and in assay [2] (setting [6]) was > 1000 nM throughout.

Regarding `O=C1CCC(N2C(=O)c3ccc(NCCCCC(F)(F)C(=O)N4CCC(n5cc(-c6cnc7ccccc7n6)cn5)CC4)cc3C2=O)C(=O)N1` (stereo not shown) [GS-520, 5-((5,5-difluoro-6-oxo-6-(4-(4-(quinoxalin-2-yl)-1H-pyrazol-1-yl)piperidin-1-yl)hexyl)amino)-2-(2,6-dioxopiperidin-3-yl)isoindoline-1,3-dione], the IC50 in assay [1] (setting [3]), in assay [1] (setting [4]), in assay [2] (setting [5]) and in assay [2] (setting [6]) was < 10 nM throughout.

In the case of `O=C1CCC(N2C(=O)c3ccc(NCCCCCCn4cc(-c5nc6ccccc6nc5C(F)(F)F)cn4)cc3C2=O)C(=O)N1` (stereo not shown) [GS-522, 2-(2,6-Dioxopiperidin-3-yl)-5-((6-(4-(3-(trifluoromethyl)quinoxalin-2-yl)-1H-pyrazol-1-yl)hexyl)amino)isoindoline-1,3-dione], the IC50 in assay [1] (setting [3]) was 100 to 1000 nM; in assay [1] (setting [4]), 10 to 100 nM; in assay [2] (setting [5]), > 1000 nM; in assay [2] (setting [6]) it was < 10 nM.

For `CC(C)c1nc2ccccc2nc1-c1cnn(CCCCCCNc2ccc3c(c2)C(=O)N(C2CCC(=O)NC2=O)C3=O)c1` (stereo not shown) [GS-523, 2-(2,6-Dioxopiperidin-3-yl)-5-((6-(4-(3-isopropylquinoxalin-2-yl)-1H-pyrazol-1-yl)hexyl)amino)isoindoline-1,3-dione], the IC50 is > 1000 nM in assay [1] (72 h, compound alone (without gilteritinib), 11 IC50); 100 to 1000 nM in assay [1] (72 h, compound with gilteritinib 10 nM, 11 IC50 gilteritinib); > 1000 nM in assay [2] (72 h, compound alone (without gilteritinib), read-out: MOLM-13 IC50); 100 to 1000 nM in assay [2] (72 h, compound with gilteritinib 20 nM, read-out: MOLM-13 IC50 gilteritinib).

As to `O=C1CCC(N2C(=O)c3ccc(NC4CC(n5cc(-c6cnc7ccccc7n6)cn5)C4)cc3C2=O)C(=O)N1` (stereo not shown) [GS-524, 2-(2,6-Dioxopiperidin-3-yl)-5-((3-(4-(quinoxalin-2-yl)-1H-pyrazol-1-yl)cyclobutyl)amino)isoindoline-1,3-dione], the IC50 in assay [1] (setting [3]) was 100 to 1000 nM; in assay [1] (setting [4]) it was 100 to 1000 nM; in assay [2] (setting [5]) it was > 1000 nM; in assay [2] (setting [6]), 10 to 100 nM.

For `O=C1CCC(N2C(=O)c3ccc(NCCCCCC(=O)N4CCC(n5cc(-c6cnc7ccc(C8=CCNCC8)cc7n6)cn5)CC4)cc3C2=O)C(=O)N1` (stereo not shown) [GS-525, 2-(2,6-Dioxopiperidin-3-yl)-5-((6-oxo-6-(4-(4-(7-(1,2,3,6-tetrahydropyridin-4-yl)quinoxalin-2-yl)-1H-pyrazol-1-yl)piperidin-1-yl)hexyl)amino)isoindoline-1,3-dione], the IC50 is < 10 nM in assay [1] (setting [3]), < 10 nM in assay [1] (setting [4]), 10 to 100 nM in assay [2] (setting [5]) and < 10 nM in assay [2] (setting [6]).

Take `O=C1CCC(N2C(=O)c3ccc(NCCCCCC(=O)N4CCC(n5cc(-c6cnc7ccc(N8CCNCC8)cc7n6)cn5)CC4)cc3C2=O)C(=O)N1` (stereo not shown) [GS-526, 2-(2,6-Dioxopiperidin-3-yl)-5-((6-oxo-6-(4-(4-(7-(piperazin-1-yl)quinoxalin-2-yl)-1H-pyrazol-1-yl)piperidin-1-yl)hexyl)amino)isoindoline-1,3-dione]: the IC50 in assay [1] (setting [3]), in assay [1] (setting [4]), in assay [2] (setting [5]) and in assay [2] (setting [6]) was < 10 nM throughout.

Take `O=C1CCC(N2C(=O)c3ccc(NC4CC5(C4)CC(n4cc(-c6cnc7ccccc7n6)cn4)C5)cc3C2=O)C(=O)N1` (stereo not shown) [GS-527, 2-(2,6-Dioxopiperidin-3-yl)-5-((6-(4-(quinoxalin-2-yl)-1H-pyrazol-1-yl)spiro[3.3]heptan-2-yl)amino)isoindoline-1,3-dione]: the IC50 in assay [1] (setting [3]) was 100 to 1000 nM; in assay [1] (setting [4]), 100 to 1000 nM; in assay [2] (setting [5]) it was > 1000 nM; in assay [2] (setting [6]) it was 100 to 1000 nM.

As for `O=C1CCC(N2C(=O)c3ccc(NCCCCCC(=O)N4CCC(n5cc(-c6cnc7ccc(N8CCOCC8)cc7n6)cn5)CC4)cc3C2=O)C(=O)N1` (stereo not shown) [GS-528, 2-(2,6-Dioxopiperidin-3-yl)-5-((6-(4-(4-(7-morpholinoquinoxalin-2-yl)-1H-pyrazol-1-yl)piperidin-1-yl)-6-oxohexyl)amino)isoindoline-1,3-dione], the IC50 in assay [1] (setting [3]), in assay [1] (setting [4]), in assay [2] (setting [5]) and in assay [2] (setting [6]) was < 10 nM throughout.

In the case of `CN1CCN(c2ccc3ncc(-c4cnn(CCCCCCNc5ccc6c(c5)C(=O)N(C5CCC(=O)NC5=O)C6=O)c4)nc3c2)CC1` (stereo not shown) [GS-529, 2-(2,6-Dioxopiperidin-3-yl)-5-((6-(4-(7-(4-methylpiperazin-1-yl)quinoxalin-2-yl)-1H-pyrazol-1-yl)hexyl)amino)isoindoline-1,3-dione], the IC50 in assay [1] (setting [3]) is 10 to 100 nM; in assay [1] (setting [4]) it was < 10 nM; in assay [2] (setting [5]) it was > 1000 nM; in assay [2] (setting [6]) it was < 10 nM.

In the case of `O=C1CCC(N2C(=O)c3ccc(NCCCCCCn4cc(-c5cnc6ccc(N7CCOCC7)cc6n5)cn4)cc3C2=O)C(=O)N1` (stereo not shown) [GS-530, 2-(2,6-Dioxopiperidin-3-yl)-5-((6-(4-(7-morpholinoquinoxalin-2-yl)-1H-pyrazol-1-yl)hexyl)amino)isoindoline-1,3-dione], the IC50 in assay [1] (setting [3]) was 10 to 100 nM; in assay [1] (setting [4]), < 10 nM; in assay [2] (setting [5]), 10 to 100 nM; in assay [2] (setting [6]) it was < 10 nM.

As for `O=C1CCC(N2C(=O)c3ccc(NCCCCCCn4cc(-c5cnc6ccc(C7=CCNCC7)cc6n5)cn4)cc3C2=O)C(=O)N1` (stereo not shown) [GS-531, 2-(2,6-Dioxopiperidin-3-yl)-5-((6-(4-(7-(1,2,3,6-tetrahydropyridin-4-yl)quinoxalin-2-yl)-1H-pyrazol-1-yl)hexyl)amino)isoindoline-1,3-dione], the IC50 was 10 to 100 nM in assay [1] (setting [3]), < 10 nM in assay [1] (setting [4]), 10 to 100 nM in assay [2] (setting [5]) and < 10 nM in assay [2] (setting [6]).

With `O=C1CCC(N2C(=O)c3ccc(NCCCCCCn4cc(-c5cnc6ccc(N7CCNCC7)cc6n5)cn4)cc3C2=O)C(=O)N1` (stereo not shown) [GS-532, 2-(2,6-Dioxopiperidin-3-yl)-5-((6-(4-(7-(piperazin-1-yl)quinoxalin-2-yl)-1H-pyrazol-1-yl)hexyl)amino)isoindoline-1,3-dione], the IC50 in assay [1] (setting [3]) is 10 to 100 nM; in assay [1] (setting [4]), < 10 nM; in assay [2] (setting [5]) it was 100 to 1000 nM; in assay [2] (setting [6]) it was < 10 nM.

Take `O=C1CCC(N2Cc3cc(CNC(=O)C(F)(F)CCC(=O)N4CCC(n5cc(-c6cnc7ccccc7n6)cn5)CC4)ccc3C2=O)C(=O)N1` (stereo not shown) [GS-533, N-((2-(2,6-dioxopiperidin-3-yl)-1-oxoisoindolin-5-yl)methyl)-2,2-difluoro-5-oxo-5-(4-(4-(quinoxalin-2-yl)-1H-pyrazol-1-yl)piperidin-1-yl)pentanamide]: the IC50 is 100 to 1000 nM in assay [1] (setting [3]), 10 to 100 nM in assay [1] (setting [4]), > 1000 nM in assay [2] (setting [5]) and > 1000 nM in assay [2] (setting [6]).

Regarding `Cc1nn(CCCCCCNc2ccc3c(c2)C(=O)N(C2CCC(=O)NC2=O)C3=O)cc1-c1cnc2ccccc2n1` (stereo not shown) [GS-534, 2-(2,6-Dioxopiperidin-3-yl)-5-((6-(3-methyl-4-(quinoxalin-2-yl)-1H-pyrazol-1-yl)hexyl)amino)isoindoline-1,3-dione], the IC50 in assay [1] (setting [3]) was 10 to 100 nM; in assay [1] (setting [4]) it was < 10 nM; in assay [2] (setting [5]), 10 to 100 nM; in assay [2] (setting [6]) it was < 10 nM.
